What was measured:
[1] = molecular target: T1, human CCR5 chemokine receptor (Homo sapiens, UniProt P51681); experiment: Inhibition of [125I]-RANTES binding to CCR5/CHO cells (CCR5 antagonistic activity); details: test compound 1 μM, [125I]-RANTES as ligand, room temperature; for inhibition at 1 µM: 40 min, read-out: Binding Inhibitory Ratio (%); for Binding Inhibitory Ratio (%): 40 minutes
T1 construct: expressed in transfected cells
Protocol: Cloning of CCR5 gene from human spleen cDNA was conducted using the PCR method. Using spleen cDNA (0.5 ng) (TOYOBO CO., LTD, QUICK-Clone cDNA) as a template, PCR was performed in a DNA Thermal Cycler 480 (manufactured by Perkin Elmer) (reaction conditions: 30 cycles of 95° C. for 1 minute, 60° C. for 1 minute, and 75° C. for 5 minutes) by adding primer sets, SEQ. ID NO: 1 (sequence length: 34; sequence type: nucleic acid; chain number: single strand; topology: linear; kind of sequence: other nucleic acid synthetic. DNA) described in Experimental. Example (1) of WO 99/32100, and SEQ ID NO: 2 (sequence length: 34; sequence type: nucleic acid; chain number: single strand; topology: linear; kind of sequence: other nucleic acid synthetic. DNA) described in Experimental. Example (1) of WO 99/32100, (25 pmol, respectively), which were prepared referring to the nucleotide sequence of CCR5 gene, as reported by Samson et al. (Biochemistry 35 (11), 3362-3367 (1996)) and by using TaKaRa. EX Taq (Takara Shuzo). The resultant. PCR product was subjected to agarose gel electrophoresis to collect an approximately 1.0 kb. DNA fragment, which was subjected to an Original TA Cloning Kit (Funakoshi Co., Ltd.) to carry out cloning of CCR5 gene.
The plasmid obtained above was digested with restriction enzymes XbaI (Takara Shuzo Co., Ltd.) and BamHI (Takara Shuzo Co., Ltd.), and then subjected to agarose gel electrophoresis to collect DNA fragment of about 1.0 kb. The DNA fragment and plasmid pcDNA 3.1 (Funakoshi. Co., Ltd.) for expression in animal cells, which was previously digested with XbaI and BamHI, were mixed and ligated by DNA Ligation Kit Ver. 2 (Takara Shuzo Co., Ltd.). The resulting plasmid was subjected to transformation into. E. coli JM109 competent cells (Takara Shuzo Co., Ltd.) to obtain plasmid pCKR5.
CHO-K1 cells were cultured in a 750-ml tissue culture flask (Becton, Dickinson and Company.) using. Ham F12 medium (NIHON PHARMACEUTICAL CO., LTD.) containing 10% fetal bovine serum (Lifetech Oriental) and were collected using 0.5 g/L trypsin-0.2 g/L EDTA (Lifetech Oriental). The cells were washed with PBS (Lifetech Oriental), centrifuged (1000 rpm, 5 minutes), and suspended in PBS. The DNA was introduced into the cells using a Gene Pulser (Bio-Rad Laboratories, Inc.) under the following conditions. Namely, 8×10^6 cells and 10 μg of plasmid pCKR5 for expression of human CCR5 were placed in a cuvette having a 0.4-cm gap, and electroporation was carried out with a voltage 0.25 kV and 960 μF of capacitance. Then, the cells were transferred into Ham's. F12 medium containing 10% fetal bovine serum, and incubated for 24 hours. The cells were collected, centrifuged, and suspended in Ham' F12 medium containing 10% fetal bovine serum and Geneticin (Lifetech Oriental) at a concentration of 500 μg/ml. The suspension of cells was diluted to a concentration of 10^4 cells/ml, and was inoculated onto 96-well plate (Becton Dickinson), to obtain Geneticin-resistant strain.
Then, resulting. Geneticin-resistant strain were cultured on 96-well plate (Becton Dickinson), and CCR5-expressing cells were selected from the resistant cells. Namely, in an assay buffer, (Ham's F12 medium containing 0.5% BSA, and 20 mM HEPES (Wako Pure Chemical Ind., pH 7.2)) to which was added […][125I]-RANTES (Amersham) as a ligand, the cells were subjected to a binding reaction at room temperature for 40 minutes. Wells containing the cells were washed with ice-cooled PBS, and 50 μl/well of 1M NaOH was added and stirred. The cells to which the ligand was bound specifically, i.e., CCR5/CHO cells, were selected by measurement of radioactivity using a […].
The CCR5/CHO cells were inoculated onto 96-well microplate at a concentration of 5×10^4 cells/well, and were cultured for 24 hours. After removal of the medium by aspiration, to each well was added an assay buffer containing a test compound (1 μM), and [125I]/RANTES (Amersham) used as a ligand at a concentration of […]. […]

T1 sequence (P51681 whole entry): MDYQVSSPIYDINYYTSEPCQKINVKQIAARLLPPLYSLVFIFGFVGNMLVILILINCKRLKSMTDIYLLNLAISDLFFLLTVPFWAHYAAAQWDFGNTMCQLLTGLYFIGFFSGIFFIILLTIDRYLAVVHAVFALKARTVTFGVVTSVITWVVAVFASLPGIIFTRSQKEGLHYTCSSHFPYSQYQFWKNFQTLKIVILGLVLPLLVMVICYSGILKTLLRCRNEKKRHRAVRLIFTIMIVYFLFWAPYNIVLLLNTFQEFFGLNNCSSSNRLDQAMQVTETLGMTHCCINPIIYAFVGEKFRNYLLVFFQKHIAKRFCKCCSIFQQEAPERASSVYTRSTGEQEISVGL

| Structure (SMILES) | melting point [°C] | inhibition at 1 µM [1] [%] | Binding Inhibitory Ratio (%) [1] [%] |
| --- | --- | --- | --- |
| CCCCOCCOc1ccc(-c2ccc3c(c2)C=C(C(=O)Nc2ccc(SCc4nncn4CCC)c(C)c2)CCN3CC(C)C)cc1 [Compound 40, 7-[4-(2-butoxyethoxy)phenyl]-1-isobutyl-N-[3-methyl-4-[(4-propyl-4H-1,2,4-triazol-3-yl)methylthio]phenyl]-2,3-dihydro-1H-1-benzazepine-4-carboxamide] | 104 to 107 | 90 |  |
| CCCCOCCOc1ccc(-c2ccc3c(c2)C=C(C(=O)Nc2ccc(CCCn4cnnc4)cc2)CCN3CC(C)C)cc1 [Compound 63, 7-[4-(2-butoxyethoxy)phenyl]-1-isobutyl-N-[4-[3-(4H-1,2,4-triazol-4-yl)propyl]phenyl]-2,3-dihydro-1H-1-benzazepine-4-carboxamide] | 165 to 167 | 96 |  |
| CCCCOCCOc1ccc(-c2ccc3c(c2)C=C(C(=O)Nc2ccc([C@H](O)c4cccc[n+]4[O-])cc2)CCN3Cc2cnn(C)c2)cc1 [Compound 87, 7-[4-(2-butoxyethoxy)phenyl]-N-[4-[(S)-hydroxy(1-oxidopyridin-2-yl)methyl]phenyl]-1-(1-methylpyrazol-4-ylmethyl)-2,3-dihydro-1H-1-benzazepine-4-carboxamide] | 94 to 97 | 89 |  |
| CCCCOCCOc1ccc(-c2ccc3c(c2)C=C(C(=O)Nc2ccc([S+]([O-])Cc4nncn4CC)cc2)CCN3CC(C)C)cc1 (stereo not drawn) [Compound 135, 7-[4-(2-butoxyethoxy)phenyl]-N-[4-(4-ethyl-4H-1,2,4-triazol-3-ylmethylsulfinyl)phenyl]-1-isobutyl-2,3-dihydro-1H-benzazepine-4-carboxamide] | 102 to 104 | 100 |  |
| CCCCOCCOc1ccc(-c2ccc3c(c2)C=C(C(=O)Nc2ccc(SCc4nccn4C4CC4)cc2)CCN3CC(C)C)cc1 [Compound 366, 7-[4-(2-butoxyethoxy)phenyl]-N-[4-[[[1-cyclopropylimidazol-2-yl]methyl]sulfanyl]phenyl]-1-isobutyl-2,3-dihydro-1-benzazepine-4-carboxamide] |  | 96 |  |
| CCCCOCCOc1ccc(-c2ccc3c(c2)C=C(C(=O)Nc2ccc([S+]([O-])Cc4nccn4C4CC4)cc2)CCN3CC(C)C)cc1 (stereo not drawn) [Compound 367, 7-[4-(2-butoxyethoxy)phenyl]-N-[4-[[[1-cyclopropylimidazol-2-yl]methyl]sulfinyl]phenyl]-1-isobutyl-2,3-dihydro-1-benzazepine-4-carboxamide] |  | 96 |  |
| CCCCOCCOc1ccc(-c2ccc3c(c2)C=C(C(=O)Nc2ccc([S+]([O-])Cc4cncn4CCC)cc2)CCN3CC(C)C)cc1 (stereo not drawn) [Compound 371, 7-[4-(2-butoxyethoxy)phenyl]-1-isobutyl-N-[4-[[[1-propylimidazol-5-yl]methyl]sulfinyl]phenyl]-2,3-dihydro-1-benzazepine-4-carboxamide] |  | 100 |  |
| CCCCOCCOc1ccc(-c2ccc3c(c2)C=C(C(=O)Nc2ccc([S+]([O-])Cc4cncn4CCC)cc2)CCN3CCC)cc1 (stereo not drawn) [Compound 375, 7-[4-(2-butoxyethoxy)phenyl]-1-propyl-N-[4-[[[1-propylimidazol-5-yl]methyl]sulfinyl]phenyl]-2,3-dihydro-1-benzazepine-4-carboxamide] |  | 92 |  |
| CCCCOCCOc1ccc(-c2ccc3c(c2)C=C(C(=O)Nc2ccc(SCc4cncn4C(C)C)cc2)CCN3CC(C)C)cc1 [Compound 383, 7-[4-(2-butoxyethoxy)phenyl]-1-isobutyl-N-[4-[[[1-isopropylimidazol-5-yl]methyl]sulfanyl]phenyl]-2,3-dihydro-1-benzazepine-4-carboxamide] |  | 93 |  |
| CCCCOCCOc1ccc(-c2ccc3c(c2)C=C(C(=O)Nc2ccc(SCc4cnc5n4CCCC5)cc2)CCN3CC(C)C)cc1 [Compound 404, 7-[4-(2-butoxyethoxy)phenyl]-1-isobutyl-N-[4-[[(5,6,7,8-tetrahydroimidazo[1,2-a]pyridin-3-yl)methyl]thio]phenyl]-2,3-dihydro-1H-1-benzazepine-4-carboxamide] |  | 85 |  |
| CCCCOCCOc1ccc(-c2ccc3c(c2)C=C(C(=O)Nc2ccc([S+]([O-])Cc4nccn4CCOC(C)=O)cc2)CCN3CC(C)C)cc1 (stereo not drawn) [Compound 411, [2-[[[4-[[[7-[4-(2-butoxyethoxy)phenyl]-1-isobutyl-2,3-dihydro-1H-1-benzazepin-4-yl]carbonyl]amino]phenyl]sulfinyl]methyl]-1H-imidazol-1-yl]ethyl acetate] |  | 100 |  |
| CCCCOCCOc1ccc(-c2ccc3c(c2)C=C(C(=O)Nc2ccc(SCc4nccn4CCCC(N)=O)cc2)CCN3CC(C)C)cc1 [Compound 415, N-[4-[[[1-(4-amino-4-oxobutyl)-1H-imidazol-2-yl]methyl]thio]phenyl]-7-[4-(2-butoxyethoxy)phenyl]-1-isobutyl-2,3-dihydro-1H-1-benzazepine-4-carboxamide] | 142 to 143 | 98 |  |
| CCCCOCCOc1ccc(-c2ccc3c(c2)C=C(C(=O)Nc2ccc([S+]([O-])Cc4nccn4CCCC(=O)NC)cc2)CCN3CC(C)C)cc1 (stereo not drawn) [Compound 424, 7-[4-(2-butoxyethoxy)phenyl]-N-[4-[[[1-[4-(methylamino)-4-oxobutyl]-1H-imidazol-2-yl]methyl]sulfinyl]phenyl]-1-isobutyl-2,3-dihydro-1H-1-benzazepine-4-carboxamide] | 159 to 161 | 96 |  |
| CCCCOCCOc1ccc(-c2ccc3c(c2)C=C(C(=O)Nc2ccc(S(=O)(=O)Cc4nccn4CCCC(=O)NC)cc2)CCN3CC(C)C)cc1 [Compound 425, 7-[4-(2-butoxyethoxy)phenyl]-N-[4-[[[1-[4-(methylamino)-4-oxobutyl]-1H-imidazol-2-yl]methyl]sulfonyl]phenyl]-1-isobutyl-2,3-dihydro-1H-1-benzazepine-4-carboxamide] |  | 100 |  |
| CCCCOCCOc1ccc(-c2ccc3c(c2)C=C(C(=O)Nc2ccc([S+]([O-])Cc4cncn4CCOC(C)=O)cc2)CCN3CC(C)C)cc1 (stereo not drawn) [Compound 427, [5-[[[4-[[[7-[4-(2-butoxyethoxy)phenyl]-1-isobutyl-2,3-dihydro-1H-1-benzazepin-4-yl]carbonyl]amino]phenyl]sulfinyl]methyl]-1H-imidazol-1-yl]ethyl acetate] |  | 100 |  |
| CCCCOCCOc1ccc(-c2ccc3c(c2)C=C(C(=O)Nc2ccc(SCc4nccn4CCCO)cc2)CCN3CC(C)C)cc1 [Compound 436] |  |  | 100 |
| CCCCOCCOc1ccc(-c2ccc3c(c2)C=C(C(=O)Nc2ccc([S+]([O-])Cc4nccn4CCCO)cc2)CCN3CC(C)C)cc1 (stereo not drawn) [Compound 437] |  |  | 100 |
| C#CCn1cncc1C[S+]([O-])c1ccc(NC(=O)C2=Cc3cc(-c4ccc(OCCOCCCC)cc4)ccc3N(CC(C)C)CC2)cc1 (stereo not drawn) [Compound 443, 7-[4-(2-butoxyethoxy)phenyl]-1-isobutyl-N-[4-[[(1-(2-propin-1-yl)imidazol-5-yl)methyl]sulfinyl]phenyl]-2,3-dihydro-1H-1-benzazepine-4-carboxamide] |  |  | 100 |
